Source: PMC9515143, “Phosphorylation of Jhd2 by the Ras-cAMP-PKA(Tpk2) pathway regulates histone modifications and autophagy” (Nature Communications, 2022)

How the values were obtained:
[1] = test system: Tpk2-as; experiment: In vitro kinase assay, Tpk2-as, Jhd2 substrate; assay type: biochemical, budding yeast (Saccharomyces cerevisiae); settings: 25 μM 1NM-PP1, in vitro kinase assay, 30 °C, Western blot
Experimental: (§1) 0–300 ng purified Jhd2 was mixed with or without 200 ng TAP purified Tpk2 in 2×kinase reaction buffer (100 mM Tris-HCl pH 7.4, 100 mM MgCl2, 10 mM ATP, 0.2 μM PMSF, 1 mM Na3VO4, 5% glycerol) at 30 °C. Equal aliquots were taken at different time points, and the reaction was quenched by adding 2×SDS-PAGE loading buffer and incubated at 95 °C for 10 min. Boiled samples were resolved on 10% SDS-PAGE and subjected to Western blot analysis.

[2] = test system: WT Tpk2; experiment: In vitro kinase assay, WT Tpk2, Jhd2 substrate; assay type: biochemical, budding yeast (Saccharomyces cerevisiae); settings: 25 μM 1NM-PP1, in vitro kinase assay, 30 °C, Western blot
Experimental: as §1

[3] = test system: Tpk2-as; experiment: Intracellular H3K4me3 in Tpk2-as mutant with 1NM-PP1; assay type: cell-based, budding yeast (Saccharomyces cerevisiae); settings: 25 μM 1NM-PP1, 0.5 hr, Western blot
Experimental: (§2) To examine the effect of glucose on histone modifications, yeast cells were grown in 2% glucose-containing YPD (Yeast Extract Peptone Dextrose) medium until OD600 of 0.7–1.0. Cells were then collected, washed and resuspended in YP medium for 3 hr followed by treatment with different concentrations of glucose for 0.5 hr. For 1NM-PP1 (MCE, HY-13804) treatment, cells were grown in 2% YPD until OD600 of 0.7–1.0. Cells were then treated with 25 μM 1NM-PP1 for 0.5 hr. For FBP and pyruvate treatment, cells were pre-treated with Zymolase (Mpbio, 08320921) to increase the permeability. In brief, cells were grown in YPD medium until OD600 of 0.7–1.0, centrifuged and resuspended in 1 ml SB buffer (100 mM Sorbitol, 20 mM Tris pH 7.4). 10 μl Zymolase was then added and incubated at 30 °C for 15 min. The spheroplasts were washed and cultured in YPD medium containing different concentrations of FBP and pyruvate for 3 hr.
(§3) Cells were grown in 5 ml YPD or selective medium until OD600 of 0.7–1.0. Cells were harvested and lysed in alkaline lysis buffer (2 M NaOH, 8% 2-mercaptoethanol). After centrifugation, the protein pellet was resuspended in 150 μl 2×SDS-sample buffer. Protein samples were separated by 8–15% SDS-PAGE and transferred to PVDF membrane. […] The protein bands were visualized using the ECL Chemiluminescence Detection Kit (Bio-Rad, 170–5061) and quantified with Image J software (v.1.8.0). […]

[4] = test system: Tpk1-as; experiment: Intracellular H3K4me3 in Tpk1-as mutant with 1NM-PP1; assay type: cell-based, budding yeast (Saccharomyces cerevisiae); settings: 25 μM 1NM-PP1, 0.5 hr, Western blot
Experimental: as §2, §3

[5] = test system: Tpk3-as; experiment: Intracellular H3K4me3 in Tpk3-as mutant with 1NM-PP1; assay type: cell-based, budding yeast (Saccharomyces cerevisiae); settings: 25 μM 1NM-PP1, 0.5 hr, Western blot
Experimental: as §2, §3

[6] = test system: Tpk2-as; experiment: Intracellular Jhd2 phosphorylation in Tpk2-as mutant with 1NM-PP1; assay type: cell-based, budding yeast (Saccharomyces cerevisiae); settings: 25 μM 1NM-PP1, 0.5 hr, Western blot
Experimental: as §2, §3

[7] = test system: WT cells; experiment: Intracellular Jhd2 phosphorylation in WT cells with 1NM-PP1; assay type: cell-based, budding yeast (Saccharomyces cerevisiae); settings: 25 μM 1NM-PP1, 0.5 hr, Western blot
Experimental: as §2, §3

Structure (SMILES): CC(C)(C)n1nc(Cc2cccc3ccccc23)c2c(N)ncnc21 [1NM-PP1]
- inhibition of Tpk2-catalyzed Jhd2 phosphorylation in vitro, Tpk2-as [1]: directly inhibited Tpk2-catalyzed Jhd2 phosphorylation
- Jhd2 phosphorylation in vitro, WT Tpk2 [2]: Jhd2 was phosphorylated by WT Tpk2 but not Tpk2-as mutant when treated with 25 μM 1NM-PP1
- intracellular H3K4me3, Tpk2-as mutant [3]: significantly reduced by 1NM-PP1 in Tpk2-as mutant
- intracellular H3K4me3, Tpk1-as mutant [4]: significantly reduced by 1NM-PP1 in Tpk2-as mutant but not Tpk1-as and Tpk3-as mutants
- intracellular H3K4me3, Tpk3-as mutant [5]: significantly reduced by 1NM-PP1 in Tpk2-as mutant but not Tpk1-as and Tpk3-as mutants
- intracellular Jhd2 phosphorylation, Tpk2-as mutant [6]: significantly reduced in Tpk2-as mutant
- intracellular Jhd2 phosphorylation, WT cells [7]: significantly reduced in Tpk2-as mutant but not WT cells
